{"source": "paper PMC6639251", "about": "“Selective Kinase Inhibition Shows That Bur1 (Cdk9) Phosphorylates the Rpb1 Linker In Vivo” (Molecular and Cellular Biology, 2019)", "key": {"Ctk1/Cdk12 (Ctk1-IS)": {"molecular_target": "T1, Ctk1/Cdk12 (Ctk1-IS) (Saccharomyces cerevisiae, UniProt Q03957, V197C/F260G)", "T1 construct": "allele integrated at the natural chromosomal locus; in living yeast and nuclear extract; HA3-tagged plasmid form (61 kDa) only for expression test", "T1 sequence (Q03957 1-528 V197C/F260G)": "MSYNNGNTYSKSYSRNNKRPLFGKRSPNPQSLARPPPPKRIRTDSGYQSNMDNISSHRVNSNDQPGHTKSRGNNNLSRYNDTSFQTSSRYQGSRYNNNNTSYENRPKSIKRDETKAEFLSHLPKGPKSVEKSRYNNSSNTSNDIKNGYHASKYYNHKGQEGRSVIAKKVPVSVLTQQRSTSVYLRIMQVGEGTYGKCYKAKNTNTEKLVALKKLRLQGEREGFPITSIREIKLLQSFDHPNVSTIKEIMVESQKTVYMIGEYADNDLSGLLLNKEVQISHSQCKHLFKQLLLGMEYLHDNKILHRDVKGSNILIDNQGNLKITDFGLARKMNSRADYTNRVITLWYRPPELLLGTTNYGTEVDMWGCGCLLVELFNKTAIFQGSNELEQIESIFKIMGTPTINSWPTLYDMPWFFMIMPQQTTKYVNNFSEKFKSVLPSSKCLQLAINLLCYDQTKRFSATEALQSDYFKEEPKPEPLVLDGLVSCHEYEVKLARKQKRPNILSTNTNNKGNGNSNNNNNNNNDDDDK", "assay": "immunoblot of Rpb1 CTD Ser2P in yeast cells and in nuclear-extract elongation complexes", "assay_type": "cell-based", "settings": "covalent; engineered hole and cysteine in ATP pocket; 20 uM in cells 15 min 30 C; 250 nM in nuclear extract"}, "Kin28/Cdk7 (Kin28-IS)": {"molecular_target": "T2, Kin28/Cdk7 (Kin28-IS) (Saccharomyces cerevisiae, UniProt P06242, V21C/L83G)", "T2 construct": "allele integrated at the natural chromosomal locus; in living yeast and nuclear extract, part of TFIIH; HA-tagged plasmid form (35 kDa) only for expression test", "T2 sequence (P06242 1-306 V21C/L83G)": "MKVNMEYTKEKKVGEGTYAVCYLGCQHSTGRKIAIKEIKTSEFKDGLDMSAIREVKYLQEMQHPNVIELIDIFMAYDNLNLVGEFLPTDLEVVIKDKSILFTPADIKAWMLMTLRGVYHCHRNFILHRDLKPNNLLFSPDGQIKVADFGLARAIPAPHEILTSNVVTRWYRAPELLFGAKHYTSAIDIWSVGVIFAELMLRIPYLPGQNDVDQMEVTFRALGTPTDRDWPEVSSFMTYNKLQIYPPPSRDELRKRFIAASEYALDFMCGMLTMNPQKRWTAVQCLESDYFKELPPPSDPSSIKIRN", "assay": "immunoblot of Rpb1 CTD phosphorylation in yeast cells and in nuclear-extract elongation complexes", "assay_type": "cell-based", "settings": "covalent; engineered hole and cysteine in ATP pocket; 20 uM in cells 15 min 30 C; 250 nM in nuclear extract"}}, "data": [{"compound": "Cc1ccc(-c2c(C(=O)CCl)n(CCCO)c3ncnc(N)c23)cc1", "note": "[CMK]", "values": [{"measurement": "immunoblot of Rpb1 CTD Ser2P in yeast cells and in nuclear-extract elongation co", "setting": "Ctk1/Cdk12 (Ctk1-IS)", "value": "15-min CMK treatment of Ctk1-IS cells caused very strong loss of Ser2P"}, {"measurement": "immunoblot of Rpb1 CTD phosphorylation in yeast cells and in nuclear-extract elo", "setting": "Kin28/Cdk7 (Kin28-IS)", "value": "treatment of the Kin28-IS strain with CMK led to a significant drop in CTD Ser5P"}]}]}
